From patent EP0155244A2, “1-Ethyl-6-fluoro-7-(1H-pirrol-1-yl)-1,4-dihydro-4-oxoquinoline-3-carboxylic acid: preparation and antimicrobial activities” (priority 1985, dated 1985)
≈ marks a conversion by molar mass, not a printed value. Where two headings read alike, the source gives them in different places.

Columns and labels:
Staphylococcus spp = assay: In vitro antibacterial activity, M.I.C. by serial twofold dilution method on Mueller-Hinton agar; type: cell-based; conditions: 10 strains, pH 7.2, reading 18 h after incubation at 37°C
Procedure: (§1) Derivatives (1) and (9) were tested for the in vitro antibacterial activities against Gram-positive and Gram-negative bacteria.Nalidixic acid,pipemidic acid,- piromidic acid and enoxacin were used as positive controls for antibacterial activities.
(§2) Minimum inhibitory concentrations (M.I.C.s) were determined using the serial twolfold dilution method; lectures were performed after incubation at 37° for 18 hours.
(§3) For the experiments the substances were dissolved in NaOH 0.1 N(10 mg/ml);further dilutions in the test medium furnished the required concentrations, generally in the range from 0. 05µg/ml to 100 µg/ml.
(§4) The cultures were obtained on B.H.I. (B.B.L.) after 18 hours incubation at 37°.Tests were carried out using Mueller-Hinton agar (B.B.L.) and inocula were 10^4 bacteria.
(§5) Media M.I.C. values nX (c at least 200 max µg/ml) were calculated by the equation [formula] where si is the number of sensitive strains at the given concentration ci and st is the whole number of the sensitive strains.
(§6) Strains with M.I.C.>200µg/ml are regarded as resistant (R) and are expressed in percentage (%) by the equation : [formula] where N is the whole number of tested strains and N is t s the number of sensitive strains.
(§7) The following species of bacteria freshly isolated from various clinical specimens were tested: 16 strains of […], 10 strains of Staphylococcus spp, 15 strains of Streptococcus ovalis,3 strains of Streptococcus spp, 18 strains of Klebsiella pneumoniae,20 strains of Escherichia coli,ll strains of Salmonella spp (3 S.typhi,l S.paratyphi A,S.paratyphi B, 4 S enteritidis, 1 S.wien and S.infantis,42 strains of Proteus spp (28 P.mirabilis, 8 P.vulgaris,3 P.rettgeri,2 P.morganii and 1 Providencia ) and 8 strains of Pseudomonas aeruginosa.

Escherichia coli = assay: as above; type: cell-based; conditions: E.Coli, 20 strains, pH 7.2, reading 18 h after incubation at 37°C; for MIC: Escherichia coli
Procedure: as §1, §2, §3, §4, §5, §6, §7

Staphylococcus pyogenes = assay: as above; type: cell-based; conditions: 16 strains, pH 7.2, reading 18 h after incubation at 37°C; for MIC: Staphylococcus aureus
Procedure: as §1, §2, §3, §4, §5, §6, §7

Pseudomonas aeruginosa = assay: as above; type: cell-based; conditions: for R% = percentage of resistant strains / MIC: Pseudomonas aeruginosa, 8 strains, pH 7.2, reading 18 h after incubation at 37°C
Procedure: as §1, §2, §3, §4, §5, §6, §7

Klebsiella pneumoniae = assay: as above; type: cell-based; conditions: 18 strains, pH 7.2, reading 18 h after incubation at 37°C
Procedure: as §1, §2, §3, §4, §5, §6, §7

Streptococcus ovalis = assay: as above; type: cell-based; conditions: 15 strains, pH 7.2, reading 18 h after incubation at 37°C
Procedure: as §1, §2, §3, §4, §5, §6, §7

Salmonella spp = assay: as above; type: cell-based; conditions: 11 strains, pH 7.2, reading 18 h after incubation at 37°C
Procedure: as §1, §2, §3, §4, §5, §6, §7

Proteus spp = assay: as above; type: cell-based
Procedure: as §1, §2, §3, §4, §5, §6, §7

Streptococcus spp = assay: as above; type: cell-based; conditions: 3 strains, pH 7.2, reading 18 h after incubation at 37°C
Procedure: as §1, §2, §3, §4, §5, §6, §7

Enterobacteriaceae = assay: In vitro antibacterial activity, summary for Enterobacteriaceae; type: cell-based
Procedure: as §1, §2, §3, §4, §5
Strains with M.I.C.>200µg/ml are regarded as resistant (R) and are expressed in percentage (%) by the equation : [formula] where N is the whole number of tested strains and N is t s the number of sensitive strains. […]

Gram-positive bacteria = assay: In vitro antibacterial activity, summary for Gram-positive bacteria; type: cell-based, Staphylococcus and Streptococcus
Procedure: as §1, §2, §3, §4, §5, §6, §7

[1] = read-out: nX̄ = MIC mean values of sensitive strains
[2] = Proteus spp, 42 strains, pH 7.2, reading 18 h after incubation at 37°C
[3] = Proteus spp, 42 strains, pH 7.2, reading 18 h after incubation at 37°C, read-out: nX̄ = MIC mean values of sensitive strains

Row | SMILES | R% = percentage of resistant strains (Staphylococcus spp) [%] | MIC (Staphylococcus spp; [1]) [µg/mL] | R% = percentage of resistant strains (Escherichia coli) [%] | MIC (Escherichia coli; [1]) [µg/mL] | R% = percentage of resistant strains (Staphylococcus pyogenes) [%] | MIC (Staphylococcus pyogenes; [1]) [µg/mL] | R% = percentage of resistant strains (Pseudomonas aeruginosa) [%] | MIC (Pseudomonas aeruginosa; [1]) [µg/mL] | R% = percentage of resistant strains (Klebsiella pneumoniae) [%] | R% = percentage of resistant strains (Streptococcus ovalis) [%] | MIC (Streptococcus ovalis; [1]) [µg/mL] | R% = percentage of resistant strains (Salmonella spp) [%] | MIC (Salmonella spp; [1]) [µg/mL] | R% = percentage of resistant strains (Proteus spp; [2]) [%] | MIC (Proteus spp; [3]) [µg/mL] | MIC (Streptococcus spp; [1]) [µg/mL] | MIC (Streptococcus spp; read-out: range (MIC)) [µg/mL] | MIC (Staphylococcus spp; read-out: range (MIC)) [µg/mL] | MIC (Staphylococcus pyogenes; read-out: range (MIC)) [µg/mL] | MIC (Klebsiella pneumoniae; [1]) [µg/mL] | also measured
1 | CCn1cc(C(=O)O)c(=O)c2cnc(N3CCCC3)nc21 [Piromidic acid, piromidic acid] | 60 | 39.1 (≈ 135 µM) | 45 | 44.3 (≈ 154 µM) | 69 | 11.2 (≈ 38.8 µM) | 50 | 38.7 (≈ 134 µM) | 61 | 87 | 100 (≈ 347 µM) | 36 | 60.9 (≈ 211 µM) | 76 | 60 (≈ 208 µM) | 10.4 (≈ 36.1 µM) | 6.25 to 12.5 (≈ 21.7 to 43.4 µM) | – | – | – | –
2 | CCn1cc(C(=O)O)c(=O)c2cc(F)c(N3CCCC3)cc21 [Acid (9), 1-Ethyl-6-fluoro-1,4-dihydro-4-oxo-7-(pyrrolidin-1-yl) quinoline-3-carboxylic acid] | – | 3.98 (≈ 13.1 µM) | 10 | 3.83 (≈ 12.6 µM) | – | 5.95 (≈ 19.6 µM) | 12.5 | 9.87 (≈ 32.4 µM) | – | – | 6.2 (≈ 20.4 µM) | – | 2.78 (≈ 9.14 µM) | 7 | 4.76 (≈ 15.6 µM) | 2.2 (≈ 7.23 µM) | 0.4 to 3.12 (≈ 1.31 to 10.3 µM) | 0.8 to 6.25 (≈ 2.63 to 20.5 µM) | 0.4 to 25 (≈ 1.31 to 82.2 µM) | 12.7 (≈ 41.6 µM) | MIC (Klebsiella pneumoniae; read-out: range (MIC)): 3.12 to 25 µg/mL (≈ 10.3 to 82.2 µM); MIC (Streptococcus ovalis; read-out: range (MIC)): 3.12 to 25 µg/mL (≈ 10.3 to 82.2 µM); MIC (Salmonella spp; read-out: range (MIC)): 0.2 to 6.25 µg/mL (≈ 0.657 to 20.5 µM); R% (resistant strains) (Enterobacteriaceae): 0%; R% (resistant strains) (Gram-positive bacteria): 0%
3 | CCn1cc(C(=O)O)c(=O)c2cnc(N3CCNCC3)nc21 [Pipemidic acid, pipemidic acid] | 30 | 39.1 (≈ 129 µM) | 30 | 4.12 (≈ 13.6 µM) | 44 | 36.4 (≈ 120 µM) | 0 | 12.3 (≈ 40.6 µM) | 22 | 66 | 65.6 (≈ 216 µM) | 9 | 17.6 (≈ 58 µM) | 26 | 10.8 (≈ 35.6 µM) | 75 (≈ 247 µM) | 25 to 100 (≈ 82.4 to 330 µM) | – | – | 3.79 (≈ 12.5 µM) | MIC (Pseudomonas aeruginosa; read-out: range (MIC)): 1.56 to 25 µg/mL (≈ 5.14 to 82.4 µM)
4 | CCn1cc(C(=O)O)c(=O)c2cc(F)c(-n3cccc3)cc21 [Acid (1), l-Ethyl-6-fluoro-l,4-dihydro-4-oxo-7-(lH-pyrrol-l-yl)quinoline-3-carboxylic acid] | – | 1.26 (≈ 4.2 µM) | – | 2 (≈ 6.66 µM) | – | 1.96 (≈ 6.53 µM) | 12.5 | 5.6 (≈ 18.6 µM) | – | – | 8.4 (≈ 28 µM) | – | 1.3 (≈ 4.33 µM) | 0 | 6.46 (≈ 21.5 µM) | 0.2 (≈ 0.666 µM) | 0.2 (≈ 0.666 µM) | 0.1 to 3.12 (≈ 0.333 to 10.4 µM) | 0.1 to 12.5 (≈ 0.333 to 41.6 µM) | 3.4 (≈ 11.3 µM) | MIC (Escherichia coli; read-out: range (MIC)): 0.2 to 12.5 µg/mL (≈ 0.666 to 41.6 µM); activity against Pseudomonas aeruginosa (in words) (Pseudomonas aeruginosa; from comparative examination of R% and nX data, not so active as enoxacin): very active; MIC (Klebsiella pneumoniae; read-out: range (MIC)): 0.8 to 25 µg/mL (≈ 2.66 to 83.3 µM); MIC (Streptococcus ovalis; read-out: range (MIC)): 0.8 to 100 µg/mL (≈ 2.66 to 333 µM); MIC (Salmonella spp; read-out: range (MIC)): 0.1 to 3.12 µg/mL (≈ 0.333 to 10.4 µM); range (MIC) (Proteus spp; [2]): <0.1 to 100 µg/mL; activity against Proteus spp (in words) (Proteus spp; from comparative examination of R% and nX data): highly active; R% (resistant strains) (Enterobacteriaceae): 0%; R% (resistant strains) (Gram-positive bacteria): 0%
5 | CCn1cc(C(=O)O)c(=O)c2cc(F)c(N3CCNCC3)cc21 [Norfloxacin, norfloxacin] | – | 4.79 (≈ 15 µM) | – | 4.47 (≈ 14 µM) | – | 8.64 (≈ 27.1 µM) | 0 | 1.42 (≈ 4.45 µM) | – | – | 17.2 (≈ 53.9 µM) | – | 2.66 (≈ 8.33 µM) | 0 | 8.1 (≈ 25.4 µM) | 3.6 (≈ 11.3 µM) | 1.56 to 6.25 (≈ 4.89 to 19.6 µM) | 0.2 to 25 (≈ 0.626 to 78.3 µM) | 0.4 to 25 (≈ 1.25 to 78.3 µM) | 1.93 (≈ 6.04 µM) | MIC (Escherichia coli; read-out: range (MIC)): 0.2 to 25 µg/mL (≈ 0.626 to 78.3 µM); MIC (Pseudomonas aeruginosa; read-out: range (MIC)): 0.4 to 3.12 µg/mL (≈ 1.25 to 9.77 µM); MIC (Klebsiella pneumoniae; read-out: range (MIC)): 0.2 to 6.25 µg/mL (≈ 0.626 to 19.6 µM); MIC (Streptococcus ovalis; read-out: range (MIC)): 0.8 to 100 µg/mL (≈ 2.51 to 313 µM); MIC (Salmonella spp; read-out: range (MIC)): 0.2 to 12.5 µg/mL (≈ 0.626 to 39.1 µM); MIC (Proteus spp; Proteus spp, 42 strains, pH 7.2, reading 18 h after incubation at 37°C, read-out: range (MIC)): 0.2 to 100 µg/mL (≈ 0.626 to 313 µM)
6 | CCn1cc(C(=O)O)c(=O)c2cc(F)c(N3CCNCC3)nc21 [enoxacin] | – | – | – | – | – | – | – | – | – | – | – | – | – | – | – | – | – | – | – | – | R% (resistant strains) (Gram-positive bacteria): 0%
7 | CCn1cc(C(=O)O)c(=O)c2ccc(C)nc21 [Nalidixic acid, nalidixic acid] | 50 | 25.6 (≈ 110 µM) | 25 | 12.4 (≈ 53.4 µM) | 94 | 100 (≈ 431 µM) | 50 | 5.46 (≈ 23.5 µM) | 22 | 93 | 3.12 (≈ 13.4 µM) | 18 | 5.2 (≈ 22.4 µM) | 33 | 6.58 (≈ 28.3 µM) | – | > 100 | – | – | 12.9 (≈ 55.5 µM) | R% = percentage of resistant strains (Streptococcus spp): 100%
